Data from patent US12606538B2, “Benzo[b]selenophene sting regulator, preparation method and use thereof” (CHINA PHARMACEUTICAL UNIVERSITY, priority 2021, dated 2026).

Columns and labels:
Format in all cases: cell-based
RAW-Lucia cells = test: Luciferase assay based on RAW-Lucia cells; details: 24 h at 37° C.
Description: (§1) THP1-dual™ (Invivogen: thpd-nfis) cells or RAW-Lucia™ (Invivogen: rawl-isg) cells were diluted using a culture medium, and 180 μL of cell suspension was sucked and inoculated in a 96-well plate, such that each well contain 1×10^5 cells. 20 μL of a compound to be tested was added into the 96-well plate (the final concentration of said compound was […], and the final volume of each well was […]) and cultured at 37° C. for 24 h. 10 μL of supernatant was sucked into a new 96-well white plate, and 50 μL of a QUANT-Luc reagent was added. After full and even mixing, a microplate reader was used immediately for determination. There were three repeated wells set in the assay. The test result was represented as agitation fold and calculated by (test well−blank well)/(negative well−blank well). The test result was in the following tablet, with 2′,3′-cGAMP as a positive control, where *** represented an agitation fold of 20 or more, ** represented an agitation fold of 10 to 20, and * represented an agitation fold of 1 to 10.

THP1-dual cells = test: Luciferase assay based on THP1-dual cells; details: final concentration of compound 10 μL (so in the source), 24 h at 37° C.
Description: as §1

THP1 cells = test: Interferon β induction assay based on THP1 cells (ELISA); details: Homo sapiens, THP-1, compound 20 μM, 3.5 h, read-out: Secretion of IFNβ in THP1 cells, effect relative to 2′,3′-cGAMP at 20 μM (%)
Description: Secreted cytokine IFNβ was determined by ELISA. THP1 cells were inoculated in a 96-well plate (there was no serum contained in an RPMI 1640 medium), such that the number of cells in each well ranged from 5×10^5 to 7×10^5. A DMSO stock solution of 10 mM was prepared from a compound to be tested, diluted with a culture medium to a target concentration to be added into the 96-well plate containing cells (the final concentration of said compound was 20 μM, and the final volume of each well was 200 μL), and cultured at 37° C. in 5% CO2 for 3.5 h. The cells were collected at 4° C. and centrifuged at 1,000 rpm for 20 mins, and supernate was collected for ELISA determination. There were three repeated wells set in the assay. The result was shown in the following tablet, with 2′,3′-cGAMP as a positive control, where the test result was represented as a percentage of activity relative to 2′,3′-cGAMP at a concentration of 20 μM.

| Structure (SMILES) | Agitation activity in luciferase assay, RAW-Lucia (agitation fold) (RAW-Lucia cells) | Agitation activity in luciferase assay, THP1-dual (agitation fold) (THP1-dual cells) | Emax at 20 µM (THP1 cells) [%] |
| --- | --- | --- | --- |
| COc1cc2cc(C(=O)CCCC(=O)O)[se]c2cc1OC [I-21, 5-(5,6-dimethoxybenzo[b]selenophene-2-yl)-5-oxo-pentanoic acid] | * (* represented an agitation fold of 1 to 10) | * (* represented an agitation fold of 1 to 10) | 12 |
| COc1cc2cc(C(=O)CC(C)C(N)=O)[se]c2cc1OC (stereo not drawn) [I-13, 4-(5,6-dimethoxybenzo[b]selenophene-2-yl)-2-methyl-4-oxo-butyramide] | * (* represented an agitation fold of 1 to 10) | * (* represented an agitation fold of 1 to 10) | 6 |
| COc1cc2cc(C(=O)C[C@@H](C)C(=O)O)[se]c2cc1OC [I-3, R-4-(5,6-dimethoxybenzo[b]selenophene-2-yl)-2-methyl-4-oxo-butanoic acid] | *** (*** represented an agitation fold of 20 or more) | *** (*** represented an agitation fold of 20 or more) | 234 |
| COc1ccc2cc(C(=O)CC(C)C(=O)O)[se]c2c1 (stereo not drawn) [I-6, 4-(6-dimethoxybenzo[b]selenophene-2-yl)-2-methyl-4-oxo-butanoic acid] | * (* represented an agitation fold of 1 to 10) | * (* represented an agitation fold of 1 to 10) | 15 |
| COc1cc2cc(C(=O)CC(C(=O)O)C3CC3)[se]c2cc1OC (stereo not drawn) [I-18, 2-cyclopropyl-4-(5,6-dimethoxybenzo[b]selenophene-2-yl)-4-oxo-butanoic acid] | ** (** represented an agitation fold of 10 to 20) | *** (*** represented an agitation fold of 20 or more) | 277 |
| COc1cc2[se]c(C(=O)CC(C)C(=O)O)cc2cc1OC(C)C (stereo not drawn) [I-10, 4-(5-isopropoxy-6-dimethoxybenzo[b]selenophene-2-yl)-2-methyl-4-oxo-butanoic acid] | ** (** represented an agitation fold of 10 to 20) | ** (** represented an agitation fold of 10 to 20) | 91 |
| COc1cc2cc(C(=O)CC(C(=O)O)C(C)C)[se]c2cc1OC (stereo not drawn) [I-17, 4-(5,6-dimethoxybenzo[b]selenophene-2-yl)-2-isopropyl-4-oxo-butanoic acid] | ** (** represented an agitation fold of 10 to 20) | *** (*** represented an agitation fold of 20 or more) | 293 |
| COc1cc2cc(C(=O)C3CCCCC3C(=O)O)[se]c2cc1OC (stereo not drawn) [I-24] | ** (** represented an agitation fold of 10 to 20) | ** (** represented an agitation fold of 10 to 20) | 142 |
| COc1cc2cc(C(=O)C[C@H](C)C(=O)O)[se]c2cc1OC [I-4, S-4-(5,6-dimethoxybenzo[b]selenophene-2-yl)-2-methyl-4-oxo-butanoic acid] | *** (*** represented an agitation fold of 20 or more) | *** (*** represented an agitation fold of 20 or more) | 201 |
| CC[C@H](CC(=O)c1cc2cc(OC)c(OC)cc2[se]1)C(=O)O [I-15, R-4-(5,6-dimethoxybenzo[b]selenophene-2-yl)-2-ethyl-4-oxo-butanoic acid] | *** (*** represented an agitation fold of 20 or more) | *** (*** represented an agitation fold of 20 or more) | 2 |
